Earlier results as cited in patent US20110160253A1, “DEUTERATED TIZANIDINE” (priority 2008, published 2011).

Tests used:
[1] = patients treated with tizanidine; appears to be dose related
[2] = primary cytochrome P450 isoenzyme involved being CYP1A2

Clc1ccc2nsnc2c1NC1=NCCN1 [Tizanidine, 5-chloro-4-(2-imidazolin-2-ylamino)-2,1,3-benzothiodiazole]
patients who report sedation [1]: 48%
administered dose that is metabolized [2]: Approximately 95%
